The text below walks through data of US8735622B2, “Histone demethylase inhibitors and methods for using the same” (The Regents of the University of Colorado, a body corporate, priority 2011, dated 2014).

One may read the pEC50 as the negative decadic logarithm of the EC50, by convention in mol/L.

Structures are written as SMILES. pEC50: −log10 of the molar value. Like-named read-outs stand apart in the source and are kept apart here.

Assay [1] concerns the target T1, human GASC1 (GST-GASC1(1-420)) (Homo sapiens, UniProt Q9H3R0).
T1 construct: corresponding to amino acid 1-420 was cloned and purified; made in house; host or cells: Escherichia coli BL-21
T1 sequence (Q9H3R0 1-420): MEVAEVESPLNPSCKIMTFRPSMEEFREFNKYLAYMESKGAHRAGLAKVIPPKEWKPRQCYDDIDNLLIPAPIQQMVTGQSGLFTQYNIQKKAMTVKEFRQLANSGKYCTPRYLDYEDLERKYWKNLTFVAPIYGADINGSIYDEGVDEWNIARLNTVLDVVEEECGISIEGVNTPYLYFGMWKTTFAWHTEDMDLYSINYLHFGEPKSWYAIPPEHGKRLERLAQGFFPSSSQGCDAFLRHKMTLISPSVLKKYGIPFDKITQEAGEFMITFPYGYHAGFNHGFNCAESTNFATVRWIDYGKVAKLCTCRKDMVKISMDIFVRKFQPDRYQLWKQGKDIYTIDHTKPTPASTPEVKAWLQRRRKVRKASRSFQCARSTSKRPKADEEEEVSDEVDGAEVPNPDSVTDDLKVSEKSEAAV
Description: GASC1 enzyme activity assay (DELFIA). The format is biochemical. The note with it: in vitro. Here is the method:
In order to evaluate the inhibitory activity of 1 in vitro, a GST-fusion protein of the catalytic N-terminus of human GASC1 (gene amplified in squamous cell carcinoma 1) corresponding to amino acid 1-420 was cloned and purified. […] To evaluate the enzyme specificity of 1, the activity of 1 was examined against several other related enzymes in vitro.
The enzyme activity assays for GASC1 and JMJD2A were established on the DELFIA platform. DELFIA assays were performed in white, opaque 384-well plates coated with Streptavidin (Perkin Elmer). GST-GASC1(1-420) was diluted to 200 ng/well in 20 mM Tris HCl pH 8.5/2 mM glutathione and added in a volume of 20 μL. Blank wells received Tris/glutathione buffer only. Test compounds were diluted in DMSO and […] was pinned into the wells. Blank and control wells received only compound buffer. The reactions were initiated by the addition of 500 nM biotin-H3(1-20)K9me3 substrate, 10 μM FeSO4, 100 μM alpha-ketoglutarate in a volume of 20 μL, and incubated at room temperature for 60 minutes. The plates were washed 3 times with 100 μL of Wash Buffer (50 mM Tris pH 7.4, 150 mM NaCl, 0.05% Tween 20, 0.2% BSA). […] Time resolved fluorescence was measured after 45 minutes on an Envision Microplate Imager (Perkin Elmer Life Sciences) with 400 μs delay, excitation at 360 nm, and emission at 620 nm.

A further assay concerns the target T2, LSD1 (Homo sapiens, UniProt O60341).
T2 construct: LSD1 (full-length) was expressed as glutathione S-transferase (GST) fusions; made in house; host or cells: Escherichia coli BL-21
Put plainly: LSD1 formaldehyde dehydrogenase coupled assay. It is filed as biochemical. The note with it: in vitro. Here is the method:
LSD1 activity was measured in a formaldehyde dehydrogenase coupled assay. 15 μL enzyme mix containing 2.4 μg GST-LSD1 in 20 mM TRIS pH 8.5, 1 mM NAD, 1.5 mU formaldehyde dehydrogenase, 0.5 mM glutathione was added, followed by pin transfer of 100 nL compound. Then reactions were started by addition of 15 μL 75 μM H3(1-20)K4me2 peptide, and NADH fluorescence was measured on a Envision Microplate Imager (Perkin Elmer Life Sciences) with excitation at 345 nm and emission at 460 nm, integration for 400 ms at 10 min and 80 min after peptide addition.

In the next assay the test system is HDACs. Put plainly: Histone deacetylases (HDACs) enzyme inhibition assay (Fluor de Lys). The format is biochemical. Particulars: in vitro. Here is the method: The enzyme activity assay for HDAC was carried out using Fluor de Lys Fluorescent Assay System (BML-AK500, Enzo Life Sciences Inc, NY USA). The assay was performed as the manufactory guide in white 384-well plates. Time resolved fluorescence was measured on a Beckman Coulter DTX 880 plate reader with 250 ms delay, excitation at 360 nm, and emission at 530 nm.

Assay [2] deals with H3K4me3 and H3K9me3 levels in KYSE150 cells. Description: Quantitative immunostaining assay of H3K4me3 and H3K9me3 in KYSE150 cells. It is filed as cell-based, human. The note with it: for pEC50: Homo sapiens, KYSE-150, 48 hours, immunostaining image quantification. The protocol: (§1) To quantify the cellular activity of methylstat, a quantitative image-based assay was used. […] The cellular effects of methylstat were also cell type-specific.
(§2) For quantified immunostaining experiments, KYSE150 or MCF7 cells were seeded in a 96-well plate at 10,000 cells per well and incubated at 37° C. for 24 hours. The medium was replaced and methylstat in DMSO was added at the concentration as indicated. After incubation for another 48 hours, immunostaining procedure was performed as described above using anti-H3K9me3 or anti-H3K4me3 primary antibody. Fluorescent images of cells were acquired by a Nikon Eclipse 90i fluorescence microscope and analyzed using the Cell Scoring analysis module of MetaMorph 7.0 software.

Assay [3] concerns H3K4me3 and H3K9me3 levels in MCF7 cells. Put plainly: Quantitative immunostaining assay of H3K4me3 and H3K9me3 in MCF7 cells. The format is cell-based, human. The note with it: for pEC50: Homo sapiens, 48 hours, immunostaining image quantification. Here is the method: as §1, §2
The subject of assay [4] is prolyl hydroxylases (PHDs). Put plainly: Cellular HIF-1α level (prolyl hydroxylase specificity) in HeLa cells. The format is cell-based, human. Particulars: 24 hours, methylstat 5, 10, 15 μM. The source says: To assess the specificity of methylstat in vivo, another iron(II)- and α-ketoglutarate-dependent dioxygenases, prolyl hydroxylases (PHDs), was examined. PHDs have been reported to regulate normoxic inactivation of hypoxia-inducible factors (HIFs) by hydroxylating specific prolyl residues of HIFs. […] DMOG and DFO have been used to mimic hypoxia conditions by inhibiting PHDs in vivo. […] Similar results were also observed in HeLa cells (see FIG. 7).
Total lysates of cells were generated from the cells lysed in CelLytic M Cell Lysis (Sigma) with protease inhibitor cocktail (Sigma), mixed with 2×LSB buffer (100 mM Tris-HCl pH 6.8, 200 mM DTT, 4% SDS, 20% glycerol and 0.2% bromophenol blue) and boiled for 5 min before SDS-PAGE. BCA assay (Thermo) was applied for protein qualification.

As for `COC(=O)/C=C/C(=O)N(O)CCCCNCc1ccc(COC(=O)Nc2cccc3ccccc23)cc1` [methylstat], the “inhibition of enzymatic activity of GASC1” value in assay [1] is reported as “did not significantly inhibit”. Moreover, the “inhibition of FAD-dependent HDM LSD1” value on LSD1 is recorded as “did not significantly inhibit”. Moreover, in the assay on HDACs, the “inhibition of histone deacetylases (HDACs)” value is on record as “did not significantly inhibit”. The “increase of the H3K9me3 mark” value stood at 10.8 fold in assay [2] and 4.5 fold in assay [3]. For the same compound, the negative logarithm of the EC50 (pEC50) in assay [2] (read-out: EC50 for H3K4me3) is 4.99; in assay [2] (read-out: EC50 for H3K9me3), 5.07; in assay [3] (read-out: EC50 for H3K4me3), 5.17; in assay [3] (read-out: EC50 for H3K9me3), 5.20. In assay [4], the “cellular HIF-1α levels / prolyl hydroxylase inhibition” value was “did not significantly inhibit prolyl hydroxylases”.
